Where a name gives a salt, the structure may show the parent alone. Read-outs that look alike come from different tables or passages of the source.
Key:
[1] = system: Burkholderia cepacia 1222; experiment: Agar plate multi-point inoculation, colour; format: cell-based; conditions: Columbia agar, FAC 500 mg/L, substrate 300 mg/L, 37° C. 18 h in air
[2] = system: Serratia marcescens NCTC 10211; experiment: Agar plate multi-point inoculation, colour; format: cell-based
[3] = system: Steptococcus pyogenes NCTC 8306; experiment: Agar plate multi-point inoculation, colour; format: cell-based
[4] = system: Salmonella typhimurium NCTC 74; experiment: Agar plate multi-point inoculation, colour; format: cell-based
[5] = system: Listeria monocytogenes NCTC 11994; experiment: Agar plate multi-point inoculation, colour; format: cell-based
[6] = system: Bacillus subtilis NCTC 9372; experiment: Agar plate multi-point inoculation, colour; format: cell-based
[7] = system: Candida albicans ATCC 90028; format: cell-based; conditions: Columbia agar, FAC 500 mg/L, substrate 300 mg/L, 37° C. 18 h in air
[8] = system: Citrobacter freundii NCTC 9750 or 46262; experiment: Agar plate multi-point inoculation, colour; format: cell-based; conditions: Columbia agar, FAC 500 mg/L, substrate 300 mg/L, 37° C. 18 h in air
[9] = system: Providencia rettgeri NCTC 7475; experiment: Agar plate multi-point inoculation, colour; format: cell-based
[10] = system: Escherichia coli NCTC 10418; experiment: Agar plate multi-point inoculation, colour; format: cell-based
[11] = system: Enterococcus faecalis NCTC 775; experiment: Agar plate multi-point inoculation, colour; format: cell-based
[12] = system: Staphylococcus aureus (MRSA) NCTC 11939; experiment: Agar plate multi-point inoculation, colour; format: cell-based; conditions: for Colour: Columbia agar, FAC 500 mg/L, substrate 300 mg/L, 37° C. 18 h in air
[13] = system: Candida glabrata NCPF 3943; experiment: Agar plate multi-point inoculation, colour; format: cell-based
[14] = system: Yersinia enterocolitica NCTC 11176; experiment: Agar plate multi-point inoculation, colour; format: cell-based; conditions: Columbia agar, FAC 500 mg/L, substrate 300 mg/L, 37° C. 18 h in air
[15] = system: Morganella morganii 462403 (wild); experiment: Agar plate multi-point inoculation, colour; format: cell-based; conditions: Columbia agar, FAC 500 mg/L, substrate 300 mg/L, 37° C. 18 h in air
[16] = system: Pseudomonas aeruginosa NCTC 10662; experiment: Agar plate multi-point inoculation, colour; format: cell-based
[17] = system: Staphylococcus aureus NCTC 6571; experiment: Agar plate multi-point inoculation, colour; format: cell-based
[18] = system: Enterobacter cloacae NCTC 11936; experiment: Agar plate multi-point inoculation, colour; format: cell-based
[19] = system: Staphylococcus epidermidis NCTC 11047; experiment: Agar plate multi-point inoculation, colour; format: cell-based
[20] = system: Enterococcus faecium NCTC 7171; experiment: Agar plate multi-point inoculation, colour; format: cell-based
[21] = system: Acinetobacter baumannii NCTC 19606; experiment: Agar plate multi-point inoculation, colour; format: cell-based
[22] = system: Burkholderia cepacia NCTC 10931; experiment: Agar plate multi-point inoculation, colour; format: cell-based; conditions: Columbia agar, FAC 500 mg/L, substrate 300 mg/L, 37° C. 18 h in air
[23] = system: Klebsiella pneumoniae NCTC 9528; experiment: Agar plate multi-point inoculation, colour; format: cell-based
range of microorganisms = experiment: Agar plate evaluation with a range of microorganisms (hue, diffusion, background); format: cell-based; conditions: agar plates with FAC
[24] = Columbia agar, FAC 500 mg/L, substrate 300 mg/L, 37° C. 18 h in air

Compound | melting point | Colour [1] | Colour [2, 24] | Colour [3, 24] | Colour [4, 24] | Colour [5, 24] | Colour [6, 24] | Colour [7] | Colour [8] | Colour [9, 24] | Colour [10, 24] | Colour [11, 24] | Colour [12] | Colour [13, 24] | Colour [14] | Colour [16, 24] | Colour [17, 24] | Colour [18, 24] | Colour [19, 24] | Colour [20, 24] | further results
O=C(O)C1OC(Oc2cc3ccccc3cc2O)C(O)C(O)C1O (as salt: salt) [Compound 12a, DHN-β-D-glucuronide CHA Salt] | 223 to 224 °C |  |  |  |  |  |  |  |  |  |  |  |  |  |  |  |  |  |  |  | 
O=C(O)C1OC(Oc2cc3cc(Br)c(Br)cc3cc2O)C(O)C(O)C1O (as salt: salt) [Compound 29, 6,7-Dibromo-DHN-β-D-glucuronide CHA Salt] | 221 to 224 °C |  |  |  |  |  |  |  |  |  |  |  |  |  |  |  |  |  |  |  | 
OC[C@H]1O[C@@H](Oc2cc3ccccc3cc2O)C(O)C1O (stereo partly drawn) [Compound 2, DHN-β-D-ribofuranoside] | 181 to 182 °C | − | ++ | − | ++ | − | − | − | ++ | ++ | ++ | − | + | − | − | − | + | ++ | − | − | hydrolysis of substrate ([12]; agar plates with FAC): able to hydrolyse; Colour [15]: ++; hydrolysis of substrate ([17]; agar plates with FAC): able to hydrolyse; hydrolysis of substrate ([19]; agar plates with FAC): unaffected
OCC1OC(Oc2cc3ccccc3cc2O)C(O)C(O)C1O [Compound 4, DHN-β-D-glucopyranoside] | > 210 °C (dec.) |  | ++ | − | − | + | + | − |  | ++ | Tr. | + | − | − | − | − | − | + | − | + | Colour [21, 24]: −; Colour [22]: −; Colour [23, 24]: ++
OCC1OC(Oc2cc3ccccc3cc2O)C(O)C(O)C1O [Compound 6, DHN-α-D-glucopyranoside] | 164 to 166 °C | − | ++ | ++ | − | ++ | ++ | − | − | − | + | ++ | +/− | − | Tr. | − | +/− | ++ | + | Tr. | Colour [15]: −
OCC1OC(Oc2cc3ccccc3cc2O)C(O)C(O)C1O [Compound 10, DHN-α-D-galactopyranoside] |  | − | − | − | − | − | − | − | − | − | Tr. | − | − | − | − | − | − | Tr. | − | − | Colour [15]: −
O=C([O-])C1OC(Oc2cc3ccccc3cc2O)C(O)C(O)C1O.[Na+] [Compound 12b, DHN-β-D-glucuronide Sodium Salt] | 53 to 55 °C | − | − | − | − | − | − | − | − | − | ++ | − | − | − | − | − | − | − | − | − | hydrolysis of substrate (judged by colour) ([10]; agar plates containing FAC): strong colour; Colour [15]: −
CC(=O)NC1C(Oc2cc3ccccc3cc2O)OC(CO)C(O)C1O [Compound 15, DHN-N-acetyl-β-D-glucosaminide] | 204 to 205 °C | − | ++ | ++ | − | ++ | − | − | − | − | − | ++ | − | − | + | − | − | +/− | − | ++ | Colour [15]: −
CCCCCCCC(=O)Oc1cc2ccccc2cc1OC(=O)CCCCCCC [Compound 16, DHN-dicaprylate] |  |  | + | − | − | − | − | − |  | + | − | − | − | − | − | + | − | − | − | − | Colour [21, 24]: +; Colour [22]: −; Colour [23, 24]: −
O=P([O-])([O-])Oc1cc2ccccc2cc1O.[Na+].[Na+] [Compound 17, DHN-phosphate Disodium Salt] |  |  |  |  |  |  |  | − |  |  |  |  | + |  | +/− |  |  |  |  |  | Colour [2]: ++; Colour [3]: −; Colour [4]: ++; Colour [5]: +; Colour [6]: −; Colour [21]: −; Colour [9]: +; Colour [10]: +/−; Colour [11]: −; Colour [22]: +/−; Colour [13]: −; Colour [16]: −; Colour [17]: +; Colour [18]: +/−; Colour [19]: −; Colour [23]: ++; Colour [20]: −
O=[N+]([O-])c1c(O)c(O[C@@H]2O[C@H](CO)C(O)C2O)cc2ccccc12 (stereo partly drawn) [Compound 19, 1-Nitro-DHN-β-D-ribofuranoside] | > 170 °C (dec.) |  |  |  |  |  |  |  |  |  |  |  |  |  |  |  |  |  |  |  | colour (hue) after hydrolysis (range of microorganisms): more distinctly red
OCC1OC(Oc2cc3cc(Br)c(Br)cc3cc2O)C(O)C(O)C1O [Compound 25, 6,7-Dibromo-DHN-β-D-galactopyranoside] | 256 to 257 °C | +/− | + | − | − | +/− | − | − | + | − | ++ | Tr. | − | − | − | − | − | − | − | +/− | Colour [15]: −
OCC1OC(Oc2cc3cc(Br)c(Br)cc3cc2O)C(O)C(O)C1O [Compound 27, 6,7-Dibromo-DHN-β-D-glucopyranoside] |  | + | ++ | − | − | +/− | + | − | + | ++ | Tr. | Tr. | Tr. | − | − | − | Tr. | − | − | +/− | Colour [15]: −
O=C(O)C1OC(Oc2cc3cc(Br)c(Br)cc3cc2O)C(O)C(O)C1O [Compound 29, 6,7-Dibromo-DHN-β-D-glucuronide CHA Salt] |  | − |  |  |  |  |  | − | − |  |  |  | − |  | − |  |  |  |  |  | Colour [2]: −; Colour [3]: −; Colour [4]: −; Colour [5]: −; Colour [6]: −; Colour [9]: −; Colour [10]: ++; Colour [11]: −; Colour [13]: −; Colour [15]: −; Colour [16]: −; Colour [17]: −; Colour [18]: −; Colour [19]: −; Colour [20]: −

From patent US9938562B2, “Naphthalene derived chromogenic enzyme substrates” (Glycosynth Limited, priority 2013, dated 2018)
